Where a name gives a salt, the structure may show the parent alone.
biological target: T1, Rat brain protein farnesyltransferase (Rattus norvegicus, UniProt Q02293+Q04631); experiment: In vitro inhibition of protein farnesyltransferase, Amersham scintillation proximity assay with biotin-K Ras B fragment; format: biochemical; details: Inhibition of farnesyltransferase; compound at 1 × 10^−6 M (Table 2)
T1 construct: The enzyme is purified according to Reiss, Y., et al., Cell, 62: 81-88 (1990), utilizing steps one through three; from tissue; host or cells: rat brain

Compared with CNC(=O)CC[C@H](NC(=O)c1ccc(COc2cccnc2)cc1-c1ccccc1C)C(=O)O [Example 314, (S)-2-N-[4-(3-Pyridyloxymethyl)-2-(2-methylphenyl)benzoyl]amino-4-(N-methylaminocarbonyl)butanoic Acid], CSCCC(NC(=O)c1ccc(COc2cccnc2)cc1-c1ccccc1)C(=O)NS(=O)(=O)N1CCOCC1 (stereo not drawn) [Example 318, [4-(3-Pyridyloxymethyl)-2-phenylbenzoyl]methionine 1-Morpholinylsulfonimide] is higher in “% inhibition at 1 × 10^−6 M” value: 97% for the first, 98% for the second.

First: [4-(3-Pyridyloxymethyl)-2-phenylbenzoyl]cysteine Disodium Salt [Example 188]
Second: CSCC[C@H](NC(=O)c1ccc(C=Cc2cccnc2)cc1-c1ccccc1C)C(=O)OCOC(=O)C(C)(C)C [Example 296]
The “% inhibition at 1 × 10^−6 M” value of the first is lower: 40% for the first, 89% for the second.

same assay, conditions: Inhibition of farnesyltransferase; compound at 1 × 10^−6 M (Table 2); read-out: % inhibition at 1 × 10^−6 M

Compared with CSCC[C@@H](CC(=O)O)NC(=O)c1ccc(COc2cccnc2)cc1-c1ccccc1 [Example 248], CSCC[C@H](NC(=O)c1ccc(COc2cccnc2)cc1-c1ccccc1)C(=O)NO [Example 249, [4-(3-Pyridyloxymethyl)-2-phenylbenzoyl]methionine Hydroxamic Acid] is lower in inhibition at 1 µM: 79% for the first, 77% for the second.

Compared with CSCC[C@H](NC(=O)c1ccc(NCc2cccnc2)cc1-c1ccccc1)C(=O)O [Example 192, [4-(3-Pyridylmethylamino)-2-phenylbenzoyl]methionine], CSCC[C@@H](NC(=O)c1ccc(CNc2cccnc2)cc1-c1ccccc1)C(=O)O (stereo in doubt) [Example 189, [4-(3-Pyridylaminomethyl)-2-phenylbenzoyl]methionine] is lower in inhibition at 1 µM: 95% for the first, 88% for the second.

Going from C[C@H](NC(=O)c1ccc(COc2cccnc2)cc1-c1ccccc1)C(=O)O [Example 187, [4-(3-Pyridyloxymethyl)-2-phenylbenzoyl]alanine] to COc1ccccc1-c1cc(COc2cccnc2)ccc1C(=O)N[C@@H](CCSC)C(=O)O [Example 207, [4-(3-Pyridyloxymethyl)-2-(2-methoxyphenyl)benzoyl]methionine], the inhibition at 1 µM rises from 68% to 98%.

Going from COC(=O)[C@H](CCS(C)(=O)=O)NC(=O)c1ccc(CNc2cccnc2)cc1-c1ccccc1 (stereo in doubt) [Example 238, N-[4-(3-Pyridylaminomethyl)-2-phenylbenzoyl]-2-amino-4-(methylsulfonyl)butanoic Acid Methyl Ester] to CSCC[C@H](NC(=O)c1ccc(CNc2cccnc2)cc1-c1ccccc1)C(=O)O [Example 227, [4-(Pyrid-3-ylaminomethyl)-2-phenylbenzoyl]methionine], the inhibition at 1 µM rises from 22% to 94%.

First: CCCC(=O)OC(c1cccnc1)C(OC(=O)CCC)c1ccc(C(=O)N[C@@H](CCS(C)(=O)=O)C(=O)O)c(-c2ccccc2)c1 (stereo partly drawn) [Example 223]
Second: CS(=O)(=O)CC[C@H](NC(=O)c1ccc(/C=C/c2cccnc2)cc1-c1ccccc1)C(=O)O [Example 220, N-{4-[2-(Pyrid-3-yl)ethenyl]-2-phenylbenzoyl]-2-amino-4-(methylsulfonyl)butanoic Acid]
The inhibition at 1 µM of the first is lower: 63% for the first, 92% for the second.

Compared with CCN(CC)C(=O)COC(=O)[C@H](CCSC)NC(=O)c1ccc(CN(Cc2ccccc2)c2cccnc2)cc1-c1ccccc1C [Example 501, N,N-Diethylaminocarbonylmethyl N-[4-N-benzyl-N-pyridin-3-ylaminomethyl-2-(2-methylphenyl)benzoyl]methionine], CSCC[C@H](NC(=O)c1ccc(CN(Cc2ccccc2)c2cccnc2)cc1-c1ccccc1C)C(=O)O [Example 407, [4-(N-Benzyl-N-3-pyridylaminomethyl)-2-(2-methylphenyl)benzoyl]methionine] is higher in inhibition at 1 µM: 84% for the first, 98% for the second.

First: CSCC[C@H](NC(=O)c1ccc(CSc2cccnc2)cc1-c1ccccc1C)C(=O)NS(=O)(=O)c1ccccc1 [Example 325]
Second: COC(=O)[C@H](CCSC)NC(=O)c1ccc(CCc2cccnc2)cc1-c1ccccc1 [Example 212, {4-[2-(Pyrid-3-yl)ethyl]-2-phenylbenzoyl}methionine Methyl Ester]
The inhibition at 1 µM of the first is higher: 99% for the first, 12% for the second.

First: COC(=O)[C@H](CCSC)NC(=O)c1ccc(/C=C/c2cccnc2)cc1-c1ccccc1 [Example 210, {4-[2-(Pyrid-3-yl)ethenyl]-2-phenylbenzoyl}methionine Methyl Ester]
Second: CSCC[C@H](NC(=O)c1ccc(NCc2cccnc2)cc1-c1ccccc1)C(=O)OCCC(C)C [Example 193, [4-(3-Pyridylmethylamino)-2-phenylbenzoyl]methionine Isoamyl Ester]
The inhibition at 1 µM of the first is higher: 5% for the first, 4% for the second.

Compound CSCC[C@H](NC(=O)c1ccc(CSCc2c[nH]cn2)cc1-c1ccccc1)C(=O)O [Example 242, [4-(1H-Imidazol-4-ylmethylthiomethyl)-2-phenylbenzoyl]methionine] has an inhibition at 1 µM of 99%.

same assay, conditions: Inhibition of farnesyltransferase; compound at 1 × 10^−7 M (Table 3); read-out: % inhibition at 1 × 10^−7 M

First: CSCC[C@@H](C(=O)O)N(C)C(=O)c1ccc(CN(Cc2ccccc2)c2cccnc2)cc1-c1ccccc1C [Example 602, N-[4-(N-Benzyl-N-pyrid-3-ylaminomethyl)-2-(2-methylphenyl)benzoyl]-N-methylmethionine]
Second: CSCC[C@H](NC(=O)c1ccc(/C=C/c2cnccc2C2(O)CCCCC2)cc1-c1ccccc1C)C(=O)O [Example 482, N-[4-(2-(4-Cyclohexan-1-ol-1-yl)-pyrid-3-ylethen-1-yl)-2-(2-methylphenyl)benzoyl]methionine Lithium Salt]
The inhibition at 0.1 µM of the first is higher: 97% for the first, 96% for the second.

same assay, conditions: Inhibition of farnesyltransferase; compound at 1 × 10^−8 M (Table 4); read-out: % inhibition at 1 × 10^−8 M

CSCC[C@H](NC(=O)c1ccc(OCCn2ccnc2)cc1-c1ccccc1)C(=O)O [Example 958, N-[4-(2-Imidazol-1-ylethoxy)-2-phenylbenzoyl]methionine] and CC[C@H](NC(=O)c1ccc(COc2cccnc2)cc1-c1ccccc1)C(=O)O [Example 760, (2S)-2-N-[4-(3-Pyridyloxymethyl)-2-phenylbenzoyl]aminobutanoic Acid] cannot be ordered by inhibition at 0.01 µM: greater than 50% for the first, 95% for the second.

Going from CSCC[C@H](NC(=O)c1ccc(COc2cccnc2)cc1-c1ccccc1)C(=O)NS(=O)(=O)N1CCSCC1 [Example 603, Thiomorpholinesulfonyl N-2-[4-(Pyrid-3-yloxymethyl)-2-phenylbenzoyl]amino-4-methylthiobutanamide] to CSCC[C@H](NC(=O)c1ccc(NCc2c[nH]cn2)cc1-c1ccccc1C)C(=O)O [Example 384, 4-[N-(1-H-Imidazole-4-yl)methylamino-2-(2-methylphenylbenzoyl)]methionine], the inhibition at 0.01 µM falls from 94% to 91%.

same assay, conditions: read-out: % inhibition at 0.01 μM

With CSCC[C@H](NC(=O)c1ccc(/C=C(/C(=O)OC(C)(C)C)c2cccnc2)cc1-c1ccccc1C)C(=O)O [Example 1077, N-[4-(E-2-t-Butoxycarbonyl-2-pyrid-3-ylethenyl)-2-(2-methylphenyl)benzoyl]methionine, Lithium Salt] the inhibition at 0.01 µM was 93%.

same assay, conditions: read-out: % inhibition at 1 × 10^−6 M

First: CSCC[C@H](NC(=O)c1ccc(/C=C/c2cnccc2N(C)C)cc1-c1ccccc1)C(=O)O [Example 214, {4-[2-(4-Dimethylaminopyrid-3-yl)ethenyl]-2-phenylbenzoyl}methionine Sodium Salt]
Second: O=C(N[C@@H](CCO)C(=O)O)c1ccc(NCc2cccnc2)cc1-c1ccccc1 [Example 191, Lithium 4-(3-Pyridylmethylamino)-2-phenylbenzoyl-L-homoserinate]
The inhibition at 1 µM of the first is higher: 97% for the first, 28% for the second.

system: geranylgeranyltransferase I; experiment: Inhibition of geranylgeranyltransferase I (glass fiber filter binding assay, H-Ras-CVLL, 3H-GGPP); format: biochemical, bovine; details: compound at 1 × 10^−5 M (Table 5)
From the text: The ability of the compounds of the invention to inhibit protein farnesyltransferase or protein geranylgeranyltransferase can be measured according to the method of Moores, et al., J. Biol. Chem. 266: 14603 (1991) or the method of Vogt, et al., J. Biol. Chem. 270:660-664 (1995). In addition, procedures for determination of the inhibition of farnesylation of the oncogene protein Ras are described by Goldstein, et al., J. Biol. Chem., 266:15575-15578 (1991) and by Singh in U.S. Pat. No. 5,245,061.
Additional methods for the measurement of in vitro inhibition of protein prenylation (i.e., inhibition of farnesyltransferase or geranylgeranyltransferase) are described below.
Assays are performed using the glass fiber filter binding assay procedure with either rabbit reticulocyte lysate or Frase or GGTase I fractions isolated from bovine brains using a combination of hydrophobic and DEAE column chromatography procedures. Protein substrates are purchased from Panvera Corporation (H-ras for FTase, H-ras-CVLL for GGTase I). Tritium labeled prenyl lipid substrates (FPP or GGPP) are obtained from Amersham Life Science.
^3H-geranylgeranyldiphosphate (final concentration 0.5 μM), H-Ras-CVLL (final concentration 5.0 μM) and the test compound (various final concentrations from a stock solution in 1:1 DMSO/water; final concentration DMSO <2%) were mixed in buffer (50 mM Tris-HCl (pH 7.2), 30 mM MgCl2, 20 mM KCl, 10 μM ZnCl2, 5 mM DTT, 0.01% Triton X-100) to give a final volume of 50 μL. The mixture was brought to 37° C., treated with enzyme, and incubated for 30 minutes. 1 mL of 1 M HCl/ethanol was added to stop the reaction, and the mixture was allowed to stand for 15 minutes at room temperature then diluted with 2 mL of ethanol. The reaction mixture was filtered through a 2.5 cm glass microfiber filter from Whatman and washed with four 2 mL portions of ethanol. The glass filter was transferred to a scintillation vial, and 5 mL scintillation fluid was added. The radioisotope retained on the glass fiber filter was counted to reflect the activity of the enzymes. The IC50 value was calculated by measuring the activity of the enzyme over a suitable range of inhibitor concentrations.

With CC(C)C[C@H](NC(=O)c1ccc(NCc2ccncc2)cc1-c1cccc2ccccc12)C(=O)O [Example 969, N-[4-(Pyrid-4-ylmethylamino)-2-naphth-1-ylbenzoyl]leucine] the “Activity: % inhibition at 1 × 10^−5 M” value was >50% inhibition at 1 × 10^−5 M.

same assay, conditions: compound at 1 × 10^−6 M (Table 5)

CC(C)C[C@H](NC(=O)c1ccc(NCc2ncc[nH]2)cc1-c1cccc2ccccc12)C(=O)O [Example 966, N-[4-(Imidazol-2-ylmethylamino)-2-naphth-1-ylbenzoyl]leucine] was tested, and the “Activity: % inhibition at 1 × 10^−6 M” value was >50% inhibition at 1 × 10^−6 M.
For CC(C)C[C@H](NC(=O)c1ccc(NCc2c[nH]cn2)cc1-c1ccccc1)C(=O)O [Example 967, N-[4-(Imidazol-4-ylmethylamino)-2-phenylbenzoyl]leucine], the “Activity: % inhibition at 1 × 10^−6 M” value was >50% inhibition at 1 × 10^−6 M.
